Here are results for five compounds from PMC10145437, “Pd(II) and Pt(II) Trinuclear Chelates with Spermidine: Selective Anticancer Activity towards TNBC-Sensitive and -Resistant to Cisplatin” (Pharmaceutics, 2023).

Structures are written as SMILES. Like-named read-outs stand apart in the source and are kept apart here.

As a reminder, the IC50 is the point on the concentration scale where inhibition reaches its midpoint.

Test [1] has as its system MDA-MB-231 cells. The test can be described thus: MTT assay (cell viability). In kind it is cell-based, human. The conditions noted are these: n = 4. The protocol: (§1) The cells were harvested upon the addition of trypsin/EDTA solution, seeded in 96-well plates (1.5 × 10^4 cells/cm^2) and incubated at 37 °C. After allowing the cells to adhere for 24 h, the growth medium was replaced with the growth medium containing Pd3Spd2 (1–200 µM) or Pt3Spd2 (1–200 µM).
(§2) After each incubation period (24, 48 and 72 h), the cell viability was evaluated by the MTT [33] method. Briefly, a MTT solution (0.5 mg/mL in PBS) was added to each well after carefully removing the medium and allowed to incubate for 3 h at 37 °C; after which, the MTT was aspirated and, in order to dissolve the formazan crystals, 100 µL of DMSO were added. The optical density was measured at 570 nm.
(§3) Data are expressed as the mean ± standard error of the mean (SEM). GraphPad Prism 7 Software (San Diego, CA, USA) was used, and the statistical analysis was performed using the two-tailed Student’s t-test. The half-maximal inhibitory concentration values (IC50) were calculated by interpolation from the nonlinear regression curves obtained from cell proliferation/cytotoxicity data using “log(inhibitor) versus the normalized response–variable slope equation”. A p-value lower than 0.05 was considered statistically significant.

Test [2] concerns MDA-MB-231/R cells (cisplatin-resistant). As to the kind of experiment: MTT assay (cell viability). Format: cell-based, human. The conditions noted are these: for IC50: cell viability, MTT assay, n = 4. The protocol: as §1, §2, §3
For orientation: Tetrazolium assays rely on reduction of a dye to a coloured formazan, in cell work by metabolically active cells.

Test [3] relates to MDA-MB-231 cells. As to the kind of experiment: Cell proliferation evaluation (label-free image cell counting). In kind it is cell-based, human. Conditions: for concentration of maximum suppression of cell proliferation: MDA-MB-231, 48 h. How it is done: (§4) The human TNBC MDA-MB-231 cell line (ATCC HTB-26) and the non-cancerous breast cell line MCF-12A (ATCC CRL-10782) were purchased from ATCC (Manassas, VA, USA). DMEM-HG cell growth medium supplemented with 10% (v/v) FBS was used to culture breast cancer cells. To establish a cisplatin-resistant cell strain, MDA-MB-231 cells were continuously treated with increasing concentrations of cisplatin (up to 2 µM) during a period of 6 months. When a consistent cell growth rate in the presence of cisplatin was achieved, these cells were named MDA-MB-231/R and stocked to assure the consistency of the phenotype for future use and experiments. All posterior experiments were performed within 10 passages to maintain the resistance while routinely growing the MDA-MB-231/R cell line in a cell culture medium without the addition of cisplatin. MCF-12A cells were cultured in DMEM/F12 medium supplemented with 100 ng/mL cholera toxin, 0.01 mg/mL bovine insulin, 20 ng/mL hEGF, 500 ng/mL hydrocortisone and 5% (v/v) horse serum. Cells were grown in monolayers in a sterile environment at 37 °C with a 5% CO2 humidified atmosphere. Under these conditions, the population doubling time was 25.5 ± 0.9 h and 30.6 ± 1.1 h for MDA-MB-231 and MDA-MB-231/R cells, respectively, and 20.6 ± 3.1 h for MCF-12A cells. The cell cultures were routinely screened for mycoplasma contamination, yielding negative results.
(§5) Cells were seeded in 96-well microplates at the cell density 1.5 × 10^4 cells/cm^2 (final volume 200 µL/well) and left 24 h to attach. Afterwards, the growth medium was replaced with the growth medium containing cisplatin (0.1–200 µM), Pd3Spd2 (0.3–200 µM), Pt3Spd2 (0.3–100 µM) and Pd2Spm (0.3–200 µM).
(§6) Cell proliferation was monitored with the direct image acquisition of cells on microplates at 0, 24, 48 and 72 h post-addition of the tested compounds using a LionheartFX automated microscope (BioTek, Winooski, VT, USA). Label-free kinetic 4× images were acquired and processed using Gen 5 Image Analysis software (BioTek, Winooski, VT, USA). Individual cells per image were identified and counted, and normalized cell growth (%) was calculated using the following formula: Ct=Number of Treated Cellst−Number of Treated Cells0/Number of Untreated Cellst−Number of Untreated Cells0×100 where C(t) is the percent of net cell growth over time, Number of Treated Cells(t) is the count of cells treated with drug at each time point, Number of Treated Cells(0) is the count cells treated with drug at time 0 h, Number of Untreated Cells(t) is the count of untreated (control) cells at each time point and Number of Untreated Cells(0) is the count of untreated (control) cells at time 0 h.
as §3

Test [4] concerns MDA-MB-231/R cells (cisplatin-resistant). The description is as above. Format: cell-based, human. Conditions: for IC50: suppression of cell proliferation, n = 4; for concentration of maximum suppression of cell proliferation: MDA-MB-231/R; for Resistance Index: IC50 MDA-MB-231/R divided by IC50 MDA-MB-231, cell proliferation assay. How it is done: as §4, §5, §6, §3
For test [5], the system named is leukemic P388 cells. Details: method as in doi:10.1016/j.ccr.2016.02.001. Conditions: cited from earlier work.
Test [6] deals with sarcoma. Details: method as in earlier work. Conditions: cited from earlier work.
Test [7] relates to MCF-12A cells (non-cancerous breast cells). As to the kind of experiment: Cell proliferation evaluation (label-free image cell counting). Format: cell-based, human. Conditions: for IC50: suppression of cell proliferation, n = 4, read-out: IC50 against MCF-12A cells; for Selectivity Index for MDA-MB-231/R: IC50 MCF-12A divided by IC50 MDA-MB-231/R. How it is done: as §4, §5, §6, §3

[8] abbreviates: suppression of cell proliferation, 24 h incubation, n = 4, read-out: MDA-MB-231 IC50.
The mark [9] stands for this setting: suppression of cell proliferation, 48 h incubation, n = 4, read-out: MDA-MB-231 IC50.
Where [10] appears, read: suppression of cell proliferation, 72 h incubation, n = 4, read-out: MDA-MB-231 IC50.
[11] abbreviates: IC50 MCF-12A divided by IC50 MDA-MB-231, 48 h.

Consider `NCCCCNCCCN.NCCCCNCCCN.[Cl][Pt][Cl].[Cl][Pt][Cl].[Cl][Pt][Cl]` [Pt3Spd2], for which the IC50 in test [1] (24 h incubation) is greater than 100 µM; in test [1] (48 h incubation) it was greater than 100 µM; in test [1] (72 h incubation) it was greater than 100 µM; in test [2] (24 h incubation) it was greater than 100 µM; in test [2] (48 h incubation) it was 67.9 µM; in test [2] (72 h incubation), greater than 100 µM. Moreover, the IC50 in test [3] (cell proliferation, depending on the incubation period (24, 48, 72 h), read-out: IC50 in MDA-MB-231 cells, over all incubation periods) was greater than 100 µM; in test [3] (setting [8]), greater than 100 µM; in test [3] (setting [9]), greater than 100 µM; in test [3] (setting [10]), greater than 100 µM; in test [4] (24 h incubation) it was greater than 100 µM; in test [4] (48 h incubation), greater than 100 µM. The half-inhibitory concentration (IC50) in test [4] (72 h incubation) was greater than 100 µM. In test [3] (MDA-MB-231, only with concentrations above 100 μM), the “reduction of cell proliferation” value is “up to 25%”.
Regarding `O=[N+]([O-])[O-].O=[N+]([O-])[O-].[Pd+2].c1ccc(-c2ccccn2)nc1` [Pd(bpy)(ONO2)2], in test [5], the “activity towards leukemic P388 cells” value was “inactive”. Further, the “antitumor activity against sarcoma” value in test [6] was “effective antitumor agent”.
For the compound `N.N.[Cl][Pt][Cl]` [cisplatin, cis-dichlorodiammine platinum(II)], the entries for the “concentration of maximum suppression of cell proliferation” value (“concentration … of cell proliferation” for short) in test [3] and in test [4] (48 h) were 30 µM and 200 µM, respectively. The figures for the IC50 in test [3] (setting [9]), in test [7] (48 h incubation) and in test [4] (48 h incubation) were 1 µM, 1 µM and 32.4 µM, respectively. Also, in test [7] (setting [11]), the “Selectivity Index for MDA-MB-231” value turned out to be 1.
For the compound `NCCCNCCCCNCCCN.[Cl][Pd][Cl].[Cl][Pd][Cl]` [Pd2Spm, reference compound], the “concentration … of cell proliferation” value in test [3] and in test [4] (48 h) was 30 µM each time. Moreover, the IC50 is 7.9 µM in test [3] (setting [9]), roughly 90 µM in test [7] (48 h incubation) and 11.6 µM in test [4] (48 h incubation). For the same compound, in test [7] (MCF-12A healthy breast cells, 48 h), the “concentrations required to suppress/modify MCF-12A cell proliferation” value is on record as “above 40 μM”. In addition, the “suppression of MCF-12A cell proliferation” value in test [7] (MCF-12A, for 100 μM, 48 h) is “up to 60%”.
For `NCCCCNCCCN.NCCCCNCCCN.[Cl][Pd][Cl].[Cl][Pd][Cl].[Cl][Pd][Cl]` [Pd3Spd2], the half-maximal inhibitory concentration (IC50) worked out at 8.99 µM in test [1] (24 h incubation); 4.65 µM in test [1] (48 h incubation); 6.12 µM in test [1] (72 h incubation); 9.24 µM in test [2] (24 h incubation); 10.6 µM in test [2] (48 h incubation); 11.4 µM in test [2] (72 h incubation). Further, the IC50 in test [3] (setting [8]) came out at 8.35 µM; in test [3] (setting [9]) it was 8.44 µM; in test [3] (setting [10]), 7.92 µM; in test [7] (24 h incubation), 66.3 µM; in test [7] (48 h incubation), 53 µM; in test [7] (72 h incubation), 49.7 µM. For the same compound, the IC50 in test [4] (24 h incubation) came out at 13.3 µM; in test [4] (48 h incubation), 10.6 µM; in test [4] (72 h incubation), 10.8 µM. Moreover, the “resistance index (abstract summary)” value in test [2] (MDA-MB-231/R versus MDA-MB-231, over assays and incubation times) was “lower than 2.3”. Also, the “concentrations that suppressed cell proliferation” value in test [3] (MDA-MB-231, 24-72 h, concentration-dependent) is listed as “above 1 μM”. The “concentration … of cell proliferation” value in test [3] and in test [4] (48 h) was 30 µM in each case. The “Selectivity Index for MDA-MB-231” value came out at 7.94 in test [7] (IC50 MCF-12A divided by IC50 MDA-MB-231, 24 h); 6.28 in test [7] (setting [11]); 6.28 in test [7] (IC50 MCF-12A divided by IC50 MDA-MB-231, 72 h). In addition, the “Selectivity Index for MDA-MB-231/R” value in test [7] (48 h) stood at 4.99; in test [7] (72 h), 4.59. Also, the “selectivity index for MDA-MB-231 cells (sensitive TNBC), over incubation times” value in test [7] (MCF-12A versus MDA-MB-231, depending on the time of incubation (24-72 h)) is reported as greater than 6.28. In addition, in test [7] (MCF-12A versus MDA-MB-231/R, depending on the time of incubation (24-72 h)), the “selectivity index for MDA-MB-231/R cells (resistant TNBC), over incubation times” value is greater than 4.59. In addition, the “Resistance Index” value in test [4] (24 h) is listed as 1.6; in test [4] (48 h), 1.3; in test [4] (72 h), 1.4.
